Laboratory results published in PubChem BioAssay (NCI).
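Where inhibition never reached the appropriate level, the endpoint shown equals the highest concentration tested. Otherwise, values were interpolated linearly from a five-concentration, 48-hour dose response in 96-well plates. Definition used: TGI = concentration required for complete inhibition of growth.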

Columns and labels:
Test in all cases: growth of human tumour cells (NCI), 48 h
786-0 renal = test system: 786-0 renal
A498 renal = test system: A498 renal
A549 NSCLC = test system: A549 NSCLC
ACHN renal = test system: ACHN renal
CAKI-1 renal = test system: CAKI-1 renal
COLO 205 colon = test system: COLO 205 colon
DLD-1 colon = test system: DLD-1 colon
DMS 114 small cell lung = test system: DMS 114 small cell lung
DMS 273 small cell lung = test system: DMS 273 small cell lung
EKVX NSCLC = test system: EKVX NSCLC
HCC-2998 colon = test system: HCC-2998 colon
HCT-116 colon = test system: HCT-116 colon
HCT-15 colon = test system: HCT-15 colon
HL-60(TB) leukemia = test system: HL-60(TB) leukemia
HOP-18 NSCLC = test system: HOP-18 NSCLC
HOP-62 NSCLC = test system: HOP-62 NSCLC
HOP-92 NSCLC = test system: HOP-92 NSCLC
HT29 colon = test system: HT29 colon
IGROV1 ovarian = test system: IGROV1 ovarian
K-562 leukemia = test system: K-562 leukemia
KM12 colon = test system: KM12 colon
KM20L2 colon = test system: KM20L2 colon
LOX IMVI melanoma = test system: LOX IMVI melanoma
LXFL 529 NSCLC = test system: LXFL 529 NSCLC
M14 melanoma = test system: M14 melanoma
M19-MEL melanoma = test system: M19-MEL melanoma
MALME-3M melanoma = test system: MALME-3M melanoma
MOLT-4 leukemia = test system: MOLT-4 leukemia
NCI-H226 lung = test system: NCI-H226 lung
NCI-H23 lung = test system: NCI-H23 lung
NCI-H460 lung = test system: NCI-H460 lung
NCI-H522 lung = test system: NCI-H522 lung
OVCAR-3 ovarian = test system: OVCAR-3 ovarian
OVCAR-4 ovarian = test system: OVCAR-4 ovarian
OVCAR-5 ovarian = test system: OVCAR-5 ovarian
OVCAR-8 ovarian = test system: OVCAR-8 ovarian
RPMI-8226 leukemia = test system: RPMI-8226 leukemia
RXF 393 renal = test system: RXF 393 renal
RXF-631 renal = test system: RXF-631 renal
SF-268 CNS = test system: SF-268 CNS
SF-295 CNS = test system: SF-295 CNS
SF-539 CNS = test system: SF-539 CNS
SK-MEL-28 melanoma = test system: SK-MEL-28 melanoma
SK-OV-3 ovarian = test system: SK-OV-3 ovarian
SN12C renal = test system: SN12C renal
SNB-19 CNS = test system: SNB-19 CNS
SNB-75 CNS = test system: SNB-75 CNS
SNB-78 CNS = test system: SNB-78 CNS
SR leukemia = test system: SR leukemia
SW-620 colon = test system: SW-620 colon
TK-10 renal = test system: TK-10 renal
U251 CNS = test system: U251 CNS
UACC-257 melanoma = test system: UACC-257 melanoma
UACC-62 melanoma = test system: UACC-62 melanoma
UO-31 renal = test system: UO-31 renal
XF 498 CNS = test system: XF 498 CNS

Measured: TGI

CN(C)/C(N)=N/C(N)=S
> 100 µM: all assays above
